Measurements: ChEMBL document CHEMBL1145783, “Development of an orexin-2 receptor selective agonist, [Ala(11), D-Leu(15)]orexin-B” (Bioorg Med Chem Lett, 2003)

These compounds were tested against T1, Orexin receptor type 2 (Homo sapiens, UniProt O43614) (assay: Agonist activity against human orexin 2 receptor; EC50; nM).
T1 sequence (O43614 whole entry): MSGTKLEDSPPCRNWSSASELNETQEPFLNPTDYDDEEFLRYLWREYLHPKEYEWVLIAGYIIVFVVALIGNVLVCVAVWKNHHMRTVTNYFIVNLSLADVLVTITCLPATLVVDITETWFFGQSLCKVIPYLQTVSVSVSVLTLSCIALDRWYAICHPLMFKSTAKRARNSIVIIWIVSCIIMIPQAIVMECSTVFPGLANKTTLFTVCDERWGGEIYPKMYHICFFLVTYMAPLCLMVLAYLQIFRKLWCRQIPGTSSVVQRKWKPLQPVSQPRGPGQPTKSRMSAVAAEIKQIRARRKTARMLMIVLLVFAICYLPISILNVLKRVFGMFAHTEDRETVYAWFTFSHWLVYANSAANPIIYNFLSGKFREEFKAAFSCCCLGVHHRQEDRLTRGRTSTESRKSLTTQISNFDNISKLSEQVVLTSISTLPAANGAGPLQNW
Type: functional

EC50	Compound
> 290 nM	CC[C@H](C)[C@H](NC(=O)[C@H](CC(C)C)NC(=O)[C@@H](NC(=O)[C@H](N)CCSC)[C@@H](C)O)C(=O)NCC(=O)N[C@@H](C)C(=O)N[C@@H](C)C(=O)N[C@@H](Cc1c[nH]cn1)C(=O)N[C@@H](CC(N)=O)C(=O)NCC(=O)N[C@@H](CO)C(=O)N[C@@H](C)C(=O)N[C@@H](CCC(N)=O)C(=O)N[C@@H](CC(C)C)C(=O)N[C@@H](CC(C)C)C(=O)N[C@@H](CCCN=C(N)N)C(=O)N[C@@H](CCC(N)=O)C(=O)N[C@@H](CC(C)C)C(=O)N[C@@H](CCCN=C(N)N)C(=O)NCC(=O)N[C@@H](CCC(N)=O)C(=O)N[C@@H](CC(C)C)C(=O)NCC(=O)N1CCC[C@H]1C(=O)N1CCC[C@H]1C(=O)NCC(=O)N[C@@H](CO)C(=O)N[C@@H](CCCN=C(N)N)C(N)=O
1.6 nM	H-MTLIGAAHNGAAQLLRQLRGQLGPPGSR-NH2
0.12 nM	H-MTLIGAAHNGSAQLLRQLRGQAGPPGSR-NH2
0.84 nM	H-MTLIGGAHNGSAQLLRQLRGQLGPPGSR-NH2
1 nM	CC[C@H](C)[C@H](NC(=O)[C@H](CC(C)C)NC(=O)[C@@H](NC(=O)[C@@H](N)CCSC)[C@@H](C)O)C(=O)NCC(=O)N[C@@H](C)C(=O)N[C@@H](C)C(=O)N[C@H](Cc1cnc[nH]1)C(=O)N[C@@H](CC(N)=O)C(=O)NCC(=O)N[C@@H](CO)C(=O)N[C@@H](C)C(=O)N[C@@H](CCC(N)=O)C(=O)N[C@@H](CC(C)C)C(=O)N[C@@H](CC(C)C)C(=O)N[C@@H](CCCN=C(N)N)C(=O)N[C@@H](CCC(N)=O)C(=O)N[C@@H](CC(C)C)C(=O)N[C@@H](CCCN=C(N)N)C(=O)NCC(=O)N[C@@H](CCC(N)=O)C(=O)N[C@@H](CC(C)C)C(=O)NCC(=O)N1CCC[C@H]1C(=O)N1CCC[C@H]1C(=O)NCC(=O)N[C@@H](CO)C(=O)N[C@@H](CCCN=C(N)N)C(N)=O
0.32 nM	CC[C@H](C)[C@H](NC(=O)[C@H](CC(C)C)NC(=O)[C@@H](NC(=O)[C@@H](N)CCSC)[C@@H](C)O)C(=O)NCC(=O)N[C@@H](C)C(=O)N[C@@H](C)C(=O)N[C@@H](Cc1cnc[nH]1)C(=O)N[C@@H](CC(N)=O)C(=O)NCC(=O)N[C@@H](CO)C(=O)N[C@@H](C)C(=O)N[C@@H](CCC(N)=O)C(=O)N[C@@H](CC(C)C)C(=O)N[C@@H](CC(C)C)C(=O)N[C@@H](CCCN=C(N)N)C(=O)N[C@@H](CCC(N)=O)C(=O)N[C@@H](CC(C)C)C(=O)N[C@@H](CCCN=C(N)N)C(=O)NCC(=O)N[C@H](CCC(N)=O)C(=O)N[C@@H](CC(C)C)C(=O)NCC(=O)N1CCC[C@H]1C(=O)N1CCC[C@H]1C(=O)NCC(=O)N[C@@H](CO)C(=O)N[C@@H](CCCN=C(N)N)C(N)=O
15 nM	H-ATLIGAAHNGSAQLLRQLRGQLGPPGSR-NH2
0.11 nM	CC[C@H](C)[C@H](NC(=O)[C@H](CC(C)C)NC(=O)[C@@H](NC(=O)[C@@H](N)CCSC)[C@@H](C)O)C(=O)NCC(=O)N[C@@H](C)C(=O)N[C@@H](C)C(=O)N[C@@H](Cc1c[nH]cn1)C(=O)N[C@@H](CC(N)=O)C(=O)NCC(=O)N[C@@H](CO)C(=O)N[C@@H](C)C(=O)N[C@@H](CCC(N)=O)C(=O)N[C@@H](CC(C)C)C(=O)N[C@@H](CC(C)C)C(=O)N[C@@H](CCCN=C(N)N)C(=O)N[C@H](CCC(N)=O)C(=O)N[C@H](CC(C)C)C(=O)N[C@@H](CCCN=C(N)N)C(=O)NCC(=O)N[C@@H](CCC(N)=O)C(=O)N[C@@H](CC(C)C)C(=O)NCC(=O)N1CCC[C@H]1C(=O)N1CCC[C@H]1C(=O)NCC(=O)N[C@@H](CO)C(=O)N[C@@H](CCCN=C(N)N)C(N)=O
0.091 nM	H-MTLIGAAHNGSGQLLRQLRGQLGPPGSR-NH2
